Source: PMC9977398, “Next-generation membrane-active glycopeptide antibiotics that also inhibit bacterial cell division” (Chemical Science, 2023)

Legend:
B. subtilis 168 = assay: Acute growth retardation / physiologically effective concentration; type: cell-based; conditions: exponentially growing B. subtilis
Source text: The mechanisms of action in Gram-positive bacteria were further examined in the model bacterium B. subtilis. The study of the mechanism of action of a drug requires live cells under antibiotic stress. A 30–50% growth inhibition upon treatment, triggers a stress response in the bacterial cell while allowing cell proliferation to progress at a level sufficient to study the effect of the compound. The lowest concentration at which this effect was observed, was termed the physiologically effective concentration (PEC). […] The acute effect of different antibiotic concentrations on exponentially growing bacterial cultures were tested to identify the PEC (Fig. 3B–D). […] The presence of cationic lipophilic moieties possibly result in higher accumulation in the membrane region leading to growth inhibition at lower concentrations. […]
Determination of Physiologically Effective Concentration7
Overnight cultures of B. subtilis 168 were grown in 50 mL flasks with 10 mL of media. Upon growing to mid-log phase (an OD500 between 0.5 and 1), bacteria was inoculated in 100mL BMM in a 500 ml flask. When the cultures reach an OD500 of 0.35, the bacteria is aliquoted into separate conicals (50 mL) with 5 ml and compounds are added. The O.D. of the solutions are recorded every 30 minutes. The concentration which retards the growth of bacteria was selected as the PEC. The experiments were performed two times independently and the images are representative of results from two independent experiments. The experiment was done together with the compound published in (J. Med. Chem. 64, 2021, 10185) and therefore the graph for vancomycin is the same. […]
Overnight bacterial cultures were inoculated in BMM and allowed to grow to an OD 500 of 0.35. 200 µL of the bacterial culture were incubated with compounds at 37 ̊C for 15 minutes. […]
BAC Light assay or pore formation assay
0.35. 500 µL of the bacteria was then incubated with the compounds at their respective PECSs for 10 mins in the same media at 37 ̊C. The compound was then centrifuged at 13200 rpm and […]

MRSA = assay: Cytoplasmic membrane depolarization assay, DiSC3(5); type: cell-based, S. aureus; conditions: for time to membrane depolarisation post-treatment: exponentially growing MRSA, 10 μM; for time to dissipation of membrane potential post-treatment: stationary phase cells of MRSA, 20 μM
Source text: The membrane disruption properties of both VanQbiph (4) and VanQAmC10 (8) were studied to correlate the extent of membrane perturbation and bactericidal activity against both exponentially growing and non-growing bacterial cells. Their ability to depolarize the membrane was monitored using the fluorescent probe DiSC3(5) (3,3′-dipropylthiadicarbocyanine iodide). DiSC3(5) is sensitive to the membrane potential and as it accumulates in the membrane, the fluorescence intensity decreases due to self-quenching. Upon dissipation of membrane potential, an increase in fluorescence is observed due to DiSC3(5) being dispersed in the solution. Against B. subtilis and MRSA, both the compounds VanQbiph (4) and VanQAmC10 (8) depolarised the membrane within 2 minutes post-treatment at 10 μM (Fig. 2A and B). The depolarization occurred in a concentration-dependent manner (Fig. S2A ^†). […] Against stationary phase cells of MRSA also, rapid dissipation of membrane potential was observed within 2 minutes post-treatment with both VanQbiph (4) and VanQAmC10 (8) (Fig. 2C). […]
For assessing depolarisation against stationary phase cells of MRSA ATCC 33591, cells were grown to the stationary phase for 16 h. The culture was then diluted to an OD600 of 0.2 and the depolarisation assays was performed as described. The experiments were performed three times independently in duplicates and the graph is representative of the results from all experiments.
Cytoplasmic membrane depolarization assay5
Mid log phase MRSA were harvested (3500 rpm, 5 min), washed in 5 mM glucose and 5 mM HEPES buffer (pH 7.2) in 1:1 ratio and resuspended in 5 mM HEPES buffer, 5 mM glucose and 100 mM KCl solution in 1:1:1 ratio. Then 2 μM of 3, 3′-Dipropylthiadicarbocyanine iodide (DiSC3(5)) was added to bacterial suspension and pre-incubated for 45 min. The fluorescence was monitored at excitation wavelength of 622 nm and emission wavelength of 670 nm. Then 20 μL of test compound and vancomycin were added to black well plates containing bacterial suspension and DiSC3(5) after 2-4 min of fluorescence measurement. As a measure of membrane depolarization fluorescence was monitor for another 35 min. For assessing membrane […] against stationary phase cells of MRSA ATCC 33591, cells were grown to the stationary phase for 16 h. The culture was then diluted to an OD600 of 0.2 and the depolarisation assays was performed as described. The images are representative of results from three independent experiments done in triplicates […]
Glass cover slips 24 h post -treatment with the test compounds at the mentioned con centrations, […]

[1] = tested on: exponential growth phase MRSA; assay: Time-kill kinetics, exponentially growing MRSA; type: cell-based, S. aureus; conditions: for time to complete eradication: exponentially growing MRSA; for minimum bactericidal concentration (MBC): log-phase MRSA
Method: To examine the antibacterial properties of the two leads, VanQbiph (4) and VanQAmC10 (8), the kinetics of bactericidal activity against exponentially growing, log-phase cells of MRSA was evaluated (Fig. 1B). The minimum bactericidal concentration (MBC) of VanQbiph (4) and VanQAmC10 (8) was at 2×MIC. […]
Time-kill kinetics assay 4
The bactericidal activity of the compounds was evaluated with the time kill kinetics assay.
MRSA ATCC 33591 cells were cultured in nutrient media at 37°C for 6 h. VanQAmC 10, VanQbiph, and vancomycin was added to the bacterial solution (~1.8×10^5 CFU/mL) with the working concentration of 25 μM. This was incubated at 37°C. At different time intervals (0, 1, 2, 3, 6 and 24 h) 20 μL of aliquots from that solution were serially diluted 10 -fold in 0.9 % saline. Then from the dilutions, 20 μL was plated on yeast -dextrose agar plates and incubated at 37°C for 24 h. The bacterial colonies were counted and results are represented in logarithmic scale, i.e. log10 (CFU/mL). […]

CN[C@H](CC(C)C)C(=O)N[C@H]1C(=O)N[C@@H](CC(N)=O)C(=O)N[C@H]2C(=O)N[C@H]3C(=O)N[C@H](C(=O)N[C@H](C(=O)O)c4cc(O)cc(O)c4-c4cc3ccc4O)[C@H](O)c3ccc(c(Cl)c3)Oc3cc2cc(c3O[C@@H]2O[C@H](CO)[C@@H](O)[C@H](O)[C@H]2O[C@H]2C[C@](C)(N)[C@H](O)[C@H](C)O2)Oc2ccc(cc2Cl)[C@H]1O [Vancomycin, reference compound]
concentration showing growth retardation (inhibitory effect from) (B. subtilis 168): 0.4 µM
effect on membrane potential (MRSA): did not affect the membrane potential
time to complete eradication ([1]; 2×MIC): 24 h

CCCCCCCCCCNC(=O)C[N+](C)(C)CCCNC(=O)C1NC(=O)C2NC(=O)C(NC(=O)C3NC(=O)C(CC(N)=O)NC(=O)C(NC(=O)C(CC(C)C)NC)C(O)c4ccc(c(Cl)c4)Oc4cc3cc(c4OC3OC(CO)C(O)C(O)C3OC3CC(C)(N)C(O)C(C)O3)Oc3ccc(cc3Cl)C2O)c2ccc(O)c(c2)-c2c(O)cc(O)cc21 (stereo not shown) [VanQAmC10 (8)]
concentration showing growth retardation (inhibitory effect from) (B. subtilis 168): 0.125 µM
time to membrane depolarisation post-treatment (MRSA): ≤ 2 min
time to dissipation of membrane potential post-treatment (MRSA): ≤ 2 min
time to complete eradication ([1]; 8×MIC): ≤ 6 h
minimum bactericidal concentration (MBC) [1]: 2 ×MIC

CNC(CC(C)C)C(=O)NC1C(=O)NC(CC(N)=O)C(=O)NC2C(=O)NC3C(=O)NC(C(=O)NC(C(=O)NCCC[N+](C)(C)Cc4ccc(-c5ccccc5)cc4)c4cc(O)cc(O)c4-c4cc3ccc4O)C(O)c3ccc(c(Cl)c3)Oc3cc2cc(c3OC2OC(CO)C(O)C(O)C2OC2CC(C)(N)C(O)C(C)O2)Oc2ccc(cc2Cl)C1O (stereo not shown) [VanQbiph (4)]
concentration showing growth retardation (inhibitory effect from) (B. subtilis 168): 0.2 µM
time to membrane depolarisation post-treatment (MRSA): ≤ 2 min
time to dissipation of membrane potential post-treatment (MRSA): ≤ 2 min
time to complete eradication ([1]; 8×MIC): 24 h
minimum bactericidal concentration (MBC) [1]: 2 ×MIC
